Experimental data from patent US12365655B2, “Compounds” (CTXT PTY LTD, priority 2018, dated 2025).

What was measured:
[1] = system: acetylation of the histone H3K23 marker in U2OS cells; test: Histone H3 Lysine 23 Acetylation Biomarker Assay; format: cell-based; conditions: Homo sapiens, 24 hours incubation, read-out: IC50, inhibition of histone H3K23 acetylation
Description: Compounds were tested for their ability to inhibit acetylation of the histone H3K23 marker in the following assay:
The cell line U2OS was seeded at a density of 9,000 cells per well in 96 well optical quality tissue culture plates in RPMI medium and 10% foetal bovine serum, and allowed to adhere for 24 hours under standard culture conditions (37 degree Celsius, 5% CO2). At the end of this period the medium was aspirated. […] After incubation for 24 hours, the cells were fixed with 3.7% formaldehyde in PBS for 20 minutes at room temperature, washed (5×5 minutes) with phosphate buffer saline containing 0.1% Tween 20 and blocked with Odyssey blocking buffer (LI-COR, Lincoln, Nebr.) containing 0.1% TritonX100. Anti-H3K23ac specific antibody (Abcam ab177275) in Odyssey blocking buffer containing 0.1% Tween 20 was added and incubated for 16 hours at 4 degree Celsius. After washing (as above), a secondary antibody labelled with Alexa647 dye (LifeTechnologies) and Hoechst 33342 (1 μg/mL, SigmaAldrich) were added for 1 hour incubation. Plates were washed as previously and read on a PerkinElmer Phenix high content imaging platform. Using a Columbus image analysis pipeline, individual nuclei were located by Hoechst 33342 stain and the acetylation level was calculated from the Alexa647-related intensity in the same area.

TIP60-KAT5 = TIP60-KAT5 (Homo sapiens, UniProt Q92993); test: Acetyltransferase biochemical assay (AlphaScreen), KAT5
HBO-KAT7 = HBO-KAT7 (Homo sapiens, UniProt O95251); test: Acetyltransferase biochemical assay (AlphaScreen), KAT7
MOZ-KAT6A = MOZ-KAT6A (Homo sapiens, UniProt Q92794, A567V); test: Acetyltransferase biochemical assay (AlphaScreen), KAT6A
[2] = system: acetylation of the histone H3 Lysine 14 marker in U2OS cells; test: Histone H3 Lysine 14 Acetylation Biomarker Assay; format: cell-based; conditions: Homo sapiens, serum free medium, 24 hours incubation, read-out: IC50, inhibition of histone H3 Lysine 14 acetylation
Description: Compounds were tested for their ability to inhibit acetylation of the histone H3 Lysine 14 marker in the following assay:
The cell line U2OS was seeded at a density of 3,000 cells per well in 384-well optical quality tissue culture plates in RPMI medium supplemented with 10% foetal bovine serum and 10 mM Hepes. The cells were allowed to adhere for 24 hours under standard culture conditions (37 degree Celsius, 5% CO2). At the end of this period the cells were washed with serum free medium. […] After incubation for 24 hours, the cells were fixed with 4% formaldehyde in PBS for 15 minutes at room temperature, washed with phosphate buffer saline and blocked with blocking buffer containing 0.2% TritonX100 and 2% BSA. Anti-H3K14ac specific antibody (Cell Signalling Technologies) in blocking buffer was added and incubated overnight at 4 degree Celsius. After washing, a secondary antibody labelled with AlexaFluor 488 dye (ThermoFisher) and Hoechst 33342 (1 μg/mL, Life Technologies) were added for 2 hours incubation at room temperature. Plates were washed and read on a PerkinElmer Opera HCS high content imaging platform. Using a Columbus image analysis pipeline, individual nuclei were located by Hoechst 33342 stain and the acetylation level was calculated from the AlexaFluor 488-related intensity in the same area.

[3] = system: histone H2A.Z Lysine 7 acetylation marker in U2OS cells; test: H2A.Z Lysine 7 Acetylation Biomarker Assay; format: cell-based; conditions: Homo sapiens, serum free medium, 24 hours incubation, read-out: IC50, inhibition of histone H2A.Z Lysine 7 acetylation
Description: Compounds were tested for their ability to inhibit the histone H2A.Z Lysine 7 acetylation marker in the following assay:
The cell line U2OS was seeded at a density of 3,000 cells per well in 384-well optical quality tissue culture plates in RPMI medium supplemented with 10% foetal bovine serum and 10 mM Hepes. The cells were allowed to adhere for 24 hours under standard culture conditions (37 degree Celsius, 5% CO2). At the end of this period the cells were washed with serum free medium. […] 2018, at 30 μM concentration. After incubation for 24 hours, the cells were fixed with 4% formaldehyde in PBS for 15 minutes at room temperature, washed with phosphate buffer saline and blocked with blocking buffer containing 0.2% TritonX100 and 2% BSA. Anti-H2A.ZK7ac specific antibody (Abcam) in blocking buffer was added and incubated overnight at 4 degree Celsius. After washing, a secondary antibody labelled with AlexaFluor 488 dye (ThermoFisher) and Hoechst 33342 (1 μg/mL, Life Technologies) were added for 2 hours incubation at room temperature. Plates were washed and read on a PerkinElmer Opera HCS high content imaging platform. Using a Columbus image analysis pipeline, individual nuclei were located by Hoechst 33342 stain and the acetylation level was calculated from the AlexaFluor 488-related intensity in the same area.

QKF-KAT6B = target: T1, QKF-KAT6B (Homo sapiens, UniProt Q8WYB5); test: Acetyltransferase biochemical assay (AlphaScreen), KAT6B; conditions: 8 nM KAT6B, 1 μM AcCoA, 100 nM histone H3.1
T1 construct: purchased SignalChem K315-381BG
Description: KAT6B was obtained from SignalChem, catalog ID: K315-381BG

MOF-KAT8 = target: T2, MOF-KAT8 (Homo sapiens, UniProt Q9H7Z6); test: biochemical
T2 sequence (Q9H7Z6 with tags, fused parts or gaps): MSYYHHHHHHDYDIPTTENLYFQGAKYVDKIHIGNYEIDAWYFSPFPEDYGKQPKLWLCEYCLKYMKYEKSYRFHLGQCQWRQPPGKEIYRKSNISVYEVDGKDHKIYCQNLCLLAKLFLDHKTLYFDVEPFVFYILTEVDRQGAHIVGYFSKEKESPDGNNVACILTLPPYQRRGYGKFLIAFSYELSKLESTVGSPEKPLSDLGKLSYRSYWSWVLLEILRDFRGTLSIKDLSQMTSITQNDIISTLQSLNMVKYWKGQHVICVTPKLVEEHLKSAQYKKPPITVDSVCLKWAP

Chain of MOZ-KAT6A (Q92794 with tags, fused parts or gaps A567V): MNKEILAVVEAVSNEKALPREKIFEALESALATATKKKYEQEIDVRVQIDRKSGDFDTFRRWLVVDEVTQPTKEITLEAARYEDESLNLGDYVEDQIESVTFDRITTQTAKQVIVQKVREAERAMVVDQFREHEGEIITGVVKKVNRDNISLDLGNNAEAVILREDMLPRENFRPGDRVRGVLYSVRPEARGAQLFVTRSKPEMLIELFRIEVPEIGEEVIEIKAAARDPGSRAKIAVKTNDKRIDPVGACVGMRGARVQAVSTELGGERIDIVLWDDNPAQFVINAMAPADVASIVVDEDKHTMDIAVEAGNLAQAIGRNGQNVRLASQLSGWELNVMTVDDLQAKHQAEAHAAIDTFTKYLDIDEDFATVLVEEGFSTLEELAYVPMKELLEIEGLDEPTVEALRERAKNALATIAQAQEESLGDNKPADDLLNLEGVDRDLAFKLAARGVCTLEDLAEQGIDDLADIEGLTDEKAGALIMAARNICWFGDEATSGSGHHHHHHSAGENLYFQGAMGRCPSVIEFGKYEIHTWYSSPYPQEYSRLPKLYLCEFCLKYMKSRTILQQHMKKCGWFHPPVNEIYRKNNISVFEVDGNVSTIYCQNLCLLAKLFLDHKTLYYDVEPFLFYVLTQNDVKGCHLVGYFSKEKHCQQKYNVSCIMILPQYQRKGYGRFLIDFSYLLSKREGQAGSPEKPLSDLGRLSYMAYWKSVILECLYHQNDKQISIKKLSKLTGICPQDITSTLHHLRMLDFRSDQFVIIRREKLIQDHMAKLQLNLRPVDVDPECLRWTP
T1 sequence (Q8WYB5 whole entry): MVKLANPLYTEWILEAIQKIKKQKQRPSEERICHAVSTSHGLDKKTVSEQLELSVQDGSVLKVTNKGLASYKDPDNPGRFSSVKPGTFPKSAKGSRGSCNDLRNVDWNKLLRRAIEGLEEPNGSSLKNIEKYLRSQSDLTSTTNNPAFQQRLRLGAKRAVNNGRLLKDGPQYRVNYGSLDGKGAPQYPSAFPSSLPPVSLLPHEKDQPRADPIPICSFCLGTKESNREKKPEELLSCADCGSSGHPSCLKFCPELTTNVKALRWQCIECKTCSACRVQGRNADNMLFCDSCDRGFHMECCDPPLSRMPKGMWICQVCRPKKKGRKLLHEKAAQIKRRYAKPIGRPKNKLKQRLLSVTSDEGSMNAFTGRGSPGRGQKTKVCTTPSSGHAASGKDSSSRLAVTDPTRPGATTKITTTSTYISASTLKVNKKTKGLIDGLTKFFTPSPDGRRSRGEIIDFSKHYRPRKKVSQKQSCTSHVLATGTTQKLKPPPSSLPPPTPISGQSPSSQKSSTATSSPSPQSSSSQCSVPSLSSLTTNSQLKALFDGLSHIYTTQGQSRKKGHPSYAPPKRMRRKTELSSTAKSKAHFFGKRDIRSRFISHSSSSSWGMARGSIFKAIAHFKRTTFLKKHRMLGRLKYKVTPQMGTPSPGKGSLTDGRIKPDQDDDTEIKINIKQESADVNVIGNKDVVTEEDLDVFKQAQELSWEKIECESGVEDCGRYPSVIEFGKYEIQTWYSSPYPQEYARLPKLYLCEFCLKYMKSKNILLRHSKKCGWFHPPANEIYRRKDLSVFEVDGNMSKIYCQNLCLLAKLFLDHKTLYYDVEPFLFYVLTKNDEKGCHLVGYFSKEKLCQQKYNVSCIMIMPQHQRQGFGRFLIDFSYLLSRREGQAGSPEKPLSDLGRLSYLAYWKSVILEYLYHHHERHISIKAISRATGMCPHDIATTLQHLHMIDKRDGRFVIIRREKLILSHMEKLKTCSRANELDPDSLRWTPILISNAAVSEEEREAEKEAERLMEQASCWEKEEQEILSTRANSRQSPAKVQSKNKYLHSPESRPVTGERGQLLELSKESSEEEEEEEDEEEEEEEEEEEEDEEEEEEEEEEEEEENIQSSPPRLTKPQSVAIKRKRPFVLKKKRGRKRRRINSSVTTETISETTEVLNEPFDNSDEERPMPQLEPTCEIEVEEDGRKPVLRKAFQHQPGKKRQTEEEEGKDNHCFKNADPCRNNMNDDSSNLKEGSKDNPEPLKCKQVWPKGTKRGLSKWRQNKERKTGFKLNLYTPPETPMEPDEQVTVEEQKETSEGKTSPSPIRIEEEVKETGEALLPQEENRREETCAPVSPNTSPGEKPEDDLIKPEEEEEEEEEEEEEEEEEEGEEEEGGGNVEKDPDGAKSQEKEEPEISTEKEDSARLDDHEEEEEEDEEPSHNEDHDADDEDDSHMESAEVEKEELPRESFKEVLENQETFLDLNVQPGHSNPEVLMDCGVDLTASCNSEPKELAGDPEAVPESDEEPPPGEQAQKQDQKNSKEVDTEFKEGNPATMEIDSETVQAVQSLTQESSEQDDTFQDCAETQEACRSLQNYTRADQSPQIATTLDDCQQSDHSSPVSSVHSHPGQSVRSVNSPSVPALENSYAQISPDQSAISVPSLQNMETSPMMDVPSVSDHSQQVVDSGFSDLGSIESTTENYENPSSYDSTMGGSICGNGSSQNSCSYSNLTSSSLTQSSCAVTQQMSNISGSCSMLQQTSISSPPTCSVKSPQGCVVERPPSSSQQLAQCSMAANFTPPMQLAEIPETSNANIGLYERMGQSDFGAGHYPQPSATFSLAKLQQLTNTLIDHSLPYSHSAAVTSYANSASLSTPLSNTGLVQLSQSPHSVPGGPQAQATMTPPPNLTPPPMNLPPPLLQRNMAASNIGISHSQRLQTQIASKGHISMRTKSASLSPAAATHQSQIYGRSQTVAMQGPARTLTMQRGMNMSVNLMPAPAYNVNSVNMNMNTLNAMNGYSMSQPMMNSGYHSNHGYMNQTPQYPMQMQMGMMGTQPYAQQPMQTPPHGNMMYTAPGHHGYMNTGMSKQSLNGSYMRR
Chain of TIP60-KAT5 (Q92993 with tags, fused parts or gaps isoform Q92993-2): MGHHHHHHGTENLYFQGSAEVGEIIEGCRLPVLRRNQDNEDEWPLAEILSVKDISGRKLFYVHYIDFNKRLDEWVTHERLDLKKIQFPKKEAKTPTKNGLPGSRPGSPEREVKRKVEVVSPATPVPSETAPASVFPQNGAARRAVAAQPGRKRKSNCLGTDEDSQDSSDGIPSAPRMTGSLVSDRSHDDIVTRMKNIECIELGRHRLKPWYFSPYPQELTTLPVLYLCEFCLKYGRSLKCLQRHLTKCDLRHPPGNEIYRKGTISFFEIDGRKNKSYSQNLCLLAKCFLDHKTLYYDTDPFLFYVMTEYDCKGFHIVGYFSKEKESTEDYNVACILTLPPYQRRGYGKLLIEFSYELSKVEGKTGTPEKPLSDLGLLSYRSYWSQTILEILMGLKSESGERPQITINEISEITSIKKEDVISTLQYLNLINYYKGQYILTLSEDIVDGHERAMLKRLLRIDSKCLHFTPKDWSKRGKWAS
Chain of HBO-KAT7 (O95251 with tags, fused parts or gaps): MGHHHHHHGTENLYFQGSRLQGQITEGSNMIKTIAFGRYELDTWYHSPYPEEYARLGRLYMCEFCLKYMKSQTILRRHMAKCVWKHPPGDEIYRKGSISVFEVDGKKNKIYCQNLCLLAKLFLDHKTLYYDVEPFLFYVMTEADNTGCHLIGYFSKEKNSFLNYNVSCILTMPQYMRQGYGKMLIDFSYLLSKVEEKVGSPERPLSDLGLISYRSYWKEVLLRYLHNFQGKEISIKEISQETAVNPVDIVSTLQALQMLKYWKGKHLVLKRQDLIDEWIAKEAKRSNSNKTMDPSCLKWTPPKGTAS

SMILES | IC50 [1] | IC50 (TIP60-KAT5) | IC50 (HBO-KAT7) | IC50 (MOZ-KAT6A) | IC50 [2] | IC50 [3] | IC50 (QKF-KAT6B) | IC50 (MOF-KAT8)
COc1cccc(OC)c1S(=O)(=O)Nc1noc2cccc(OC)c12 [Example 86, 2,6-dimethoxy-N-(4-methoxybenzo[d]isoxazol-3-yl)benzene sulfonamide] | 1.58 µM | 97.6 µM | 1.98 µM | 5.89 µM | – | – | – | –
COc1cccc(OC)c1S(=O)(=O)Nc1noc2cc(Br)cc(OC)c12 [Example 89] | – | 5.79 µM | 0.168 µM | 0.285 µM | 3.96 µM | 19.8 µM | – | –
COCc1cc(OC)c2c(NS(=O)(=O)c3c(OC)cc(-c4ccccc4)cc3OC)noc2c1 [Example 91, 3,5-Dimethoxy-N-(4-methoxy-6-(methoxymethyl)benzo [d]isoxazol-3-yl)-[1,1-biphenyl]-4-sulfonamide] | 0.182 µM | 2.18 µM | 0.079 µM | 0.009 µM | 0.874 µM | 8.02 µM | 0.037 µM | –
COc1cccc(OC)c1S(=O)(=O)Nc1noc2cc(-c3cccc(O)c3)cc(OC)c12 [Example 92] | 0.013 µM | 1.39 µM | 0.06 µM | 0.006 µM | 0.703 µM | 4.62 µM | 0.053 µM | –
COc1ccc(-c2ccccc2)c(OC)c1S(=O)(=O)Nc1noc2cccc(OC)c12 [Example 96, 2,4-Dimethoxy-N-(4-methoxybenzo[d]isoxazol-3-yl)-[1,1-biphenyl]-3-sulfonamide] | > 10 µM | 28.6 µM | 4.27 µM | 1.2 µM | – | – | 3.39 µM | 53.8 µM
COCc1cc2onc(NS(=O)(=O)c3c(OC)cccc3OC)c2cc1C [Example 97, 2,6-Dimethoxy-N-(6-(methoxymethyl)-5-methylbenzo[d]isoxazol-3-yl)benzenesulfonamide] | 0.045 µM | 6.18 µM | 0.444 µM | 0.061 µM | 1.09 µM | 28 µM | 0.049 µM | –
COc1cccc(OC)c1S(=O)(=O)Nc1noc2cc(-c3ncco3)c(C)cc12 [Example 102, 2,6-Dimethoxy-N-(5-methyl-6-(oxazol-2-yl)benzo[d]isoxazol-3-yl)benzenesulfonamide] | – | 9.33 µM | 0.568 µM | 0.143 µM | 3.69 µM | > 40 µM | 0.282 µM | 11.5 µM
CCc1ccc(OC)c(S(=O)(=O)Nc2noc3cccc(OC)c23)c1 [Example 116, 5-Ethyl-2-methoxy-N-(4-methoxybenzo[d]isoxazol-3-yl)benzenesulfonamide] | 3.46 µM | 10.5 µM | 1.44 µM | 0.56 µM | – | – | 1.62 µM | –
COc1cccc(OC)c1S(=O)(=O)Nc1noc2c(-c3cnn(C)c3)ccc(OC)c12 [Example 143, 2,6-Dimethoxy-N-(4-methoxy-7-(1-methyl-1H-pyrazol-4-yl)benzo[d]isoxazol-3-yl)benzenesulfonamide] | – | > 125 µM | 7.88 µM | 32.4 µM | – | – | 50.7 µM | –
COCc1cc2onc(NS(=O)(=O)c3c(OC)cccc3OC)c2c(OC)c1Cl [Example 145] | 0.098 µM | 21 µM | 0.259 µM | 0.127 µM | 3.38 µM | > 40 µM | – | –
COc1ccccc1S(=O)(=O)Nc1noc2cccc(Cl)c12 [Example 155] | > 10 µM | 0.672 µM | 0.248 µM | 2.12 µM | 26.1 µM | > 40 µM | – | –
COc1ccc(S(=O)(=O)Nc2noc3cc(C(N)=O)c(C)cc23)c2ncccc12 [Example 168, 3-((5-methoxyquinoline)-8-sulfonamido)-5-methylbenzo[d]isoxazole-6-carboxamide] | – | 3.42 µM | 36.4 µM | 10 µM | – | > 40 µM | – | 6.46 µM
COCc1cc(OC)c2c(NS(=O)(=O)c3c(OC)ccc(Cl)c3OC)noc2c1 [Example 175, 3-Chloro-2,6-dimethoxy-N-(4-methoxy-6-(methoxymethyl)benzo[d]isoxazol-3-yl)benzenesulfonamide] | – | 43.2 µM | 5.95 µM | 0.441 µM | – | – | 0.821 µM | –
CCc1ccc(OC)c(S(=O)(=O)Nc2noc3c(-c4cnn(C)c4)cccc23)c1 [Example 191, 5-Ethyl-2-methoxy-N-(7-(1-methyl-1H-pyrazol-4-yl)benzo[d]isoxazol-3-yl)benzenesulfonamide] | > 10 µM | 68.7 µM | 1.58 µM | 12.6 µM | 17.8 µM | > 40 µM | – | –
CCc1ccc(OC)c(S(=O)(=O)Nc2noc3ccc(C4CC4)c(Cl)c23)c1 [Example 207] | – | 4.61 µM | 0.257 µM | 0.104 µM | – | – | 1.45 µM | –
CCc1ccc(OC)c(S(=O)(=O)Nc2noc3ccc(C)cc23)c1 [Example 234, 5-Ethyl-2-methoxy-N-(5-methylbenzo[d]isoxazol-3-yl)benzenesulfonamide] | – | 10.9 µM | 3.74 µM | 0.381 µM | – | > 40 µM | – | –
CCc1ccc(OC)c(S(=O)(=O)Nc2noc3ccc(C4CC4)cc23)c1 [Example 236] | – | 10.1 µM | 1.07 µM | 0.318 µM | > 40 µM | > 40 µM | – | 3.68 µM
COc1cccc(OC)c1S(=O)(=O)Nc1noc2cc(OC(F)F)cc(OC)c12 [Example 242] | 0.672 µM | 27.3 µM | 1.78 µM | 3.23 µM | – | – | – | –
COc1cncc(-c2cc(OC)c3c(NS(=O)(=O)c4c(OC)cccc4OC)noc3c2)c1 [Example 250, 2,6-Dimethoxy-N-(4-methoxy-6-(5-methoxypyridin-3-yl)benzo[d]isoxazol-3-yl)benzenesulfonamide] | 3.71 µM | 12.2 µM | 0.05 µM | 0.423 µM | 3.48 µM | 13.2 µM | – | –
COc1cccc(OC)c1S(=O)(=O)Nc1noc2c(-c3ccccc3)cc(C)cc12 [Example 252, 2,6-Dimethoxy-N-(5-methyl-7-phenylbenzo[d]isoxazol-3-yl)benzenesulfonamide] | – | 102 µM | 1.3 µM | 4.16 µM | 24.7 µM | > 40 µM | – | –
